{"source": "patent US20220133702A1", "about": "“CYSTIC FIBROSIS TRANSMEMBRANE CONDUCTANCE REGULATOR MODULATORS FOR TREATING AUTOSOMAL DOMINANT POLYCYSTIC KIDNEY DISEASE” (The Johns Hopkins University, priority 2020, published 2022)", "key": {"[1]": {"test_system": "caspase 3 activity in PN cells", "experiment": "EnzChek Caspase-3 assay (apoptosis)", "type": "cell-based, mouse", "conditions": "16 h", "experimental": "Apoptosis was measured using the EnzChek Caspase-3 Assay Kit (Invitrogen #E13184). Cells were treated either with VX-809 or with DMSO at indicated concentrations for 16 h or left untreated (control). Both treated and control cells were then harvested, lysed, and assayed as described in the manufacturer's protocol. Reactions were carried out at room temperature, and fluorescence was measured in a fluorescence microplate reader (SpectraMax M3), with excitation at 496 nm and emission detection at 520 nm. Background fluorescence, determined for a no-enzyme control, has been subtracted from each value. Ac-DEVD-CHO was used as an inhibitor control (Inh-cntr1) to confirm the correlation between signal detection and caspase3-like protease activity. Data were analyzed using one-way and ANOVA multiple comparisons. n=4-5. ****P<0.0001;\nApoptosis is associated with the absence of PC1 in ADPKD. To assess whether apoptosis is directly altered by VX-809, caspase 3 activity was monitored in PN cells."}, "[2]": {"test_system": "PC2 in the primary cilium", "experiment": "Confocal microscopy of PC2 in cilia of kidney sections", "type": "in vivo, mouse", "conditions": "doxycycline plus VX-809 vs doxycycline plus DMSO", "experimental": "To determine the location of PC2 in the cilia, confocal microscopy experiments using the Pkd1^fl/fl; Pax8^rtTA TetO-cre mouse model were conducted. These mice, when injected intraperitoneally (IP) with doxycycline on postnatal days (PND) 11, 12, and 13, developed multiple large cysts and large polycystic kidneys at approximately 3 weeks of age.\nMice were treated without doxycycline (NoDoxy), with doxycycline plus DMSO (Doxy), or with doxycycline plus VX809 (Doxy VX809), as indicated. PC2 staining is shown in red, acetylated (ac) αtubulin is shown in green, regions of colocalization of PC2 and ac-atubulin are shown in yellow. Scale bar is 10 μm. All pictures were taken with a 63× objective.\nFIG. 21 is a graph of the percentage of cells with ciliary staining. Mice were treated without doxycycline (NoDoxy), with doxycycline plus DMSO (Doxy), or with doxycycline plus VX809 (Doxy VX809), as indicated, and kidney cells were analyzed. Pearson's coefficient was measured using at least 10 cells per image. Three animals were analyzed for each maneuver.\nIn normal mice PC2 is located in the primary cilium."}, "[3]": {"test_system": "intracellular Ca^2+ in PN cells", "experiment": "Fura-2 Ca2+ imaging assay", "type": "cell-based, mouse", "conditions": "10 μM, 16 h", "experimental": "FIG. 5A, FIG. 5B, FIG. 5C, FIG. 5D, FIG. 5E, and FIG. 5F show intracellular Ca^2+ (F340/F380) levels obtained by ratiometric Fura-2 AM analysis of PN cells treated with VX-809 (10 μM) for 16 h. (FIG. 5A) Representative traces of intracellular Ca^2+ release in response to ATP (100 μM) in PN cells and cells treated with VX-809 (10 μM). (FIG. 5B, FIG. 5C) Graphs summarizing resting calcium levels (FIG. 5B) and the average amplitude of Ca^2+ release (FIG. 5C) in response to ATP. (FIG. 5D) Representative traces of ER Ca^2+ release in response to thapsigargin (4 μM) in PN cells treated with VX-809. (FIG. 5E, FIG. 5F) Resting calcium levels (FIG. 5E) and the average amplitude of Ca^2+ release (FIG. 5F) in response to thapsigargin. Amplitude was measured as the […] of the signal base to peak Δf/f. Significance between the two groups was analyzed using Student's t-test, n=4-5). *P<0.05, ***P<0.001.\nCa^2+-dependent signal transduction is associated with cyst formation. […] To address the effect of VX-809 on this Ca^2+ release, the cells were treated with thapsigargin, a specific inhibitor of the ER Ca^2+-ATPase which, when applied, allows Ca^2+ to leak out of the ER through independent Ca^2+-permeable pathways. A small effect of VX-809 on resting Ca^2+ was observed.\nFura-2 Ca^2+ imaging assay. On Day 5 of cell culture, the cells were loaded with the cell-permeant acetoxymethyl (AM) ester of the calcium indicator fura-2 (fura-2/AM) at 37° C. for 90 min. Measurements were made on a Zeiss inverted microscope equipped with a Sutter Lambda 10-2 controller and filter wheel assembly. For ATP stimulation experiments, the cells were exposed to 100 μM ATP diluted in the imaging buffer. A Zeiss FluorArc mercury lamp was used to excite the cells at 340 and 380 nm, and the emission response was measured at 510 nm Cell fluorescence was measured in response to excitation for 1000 ms at 340 nm and 200 ms at 380 nm once every 4 s. Image acquisition, image analysis, and filter wheel control were performed with IPLab software."}, "GRP78, Ero1, and GADD153": {"test_system": "GRP78, Ero1, and GADD153", "experiment": "Western blot of ER stress markers in kidney tissue lysates", "type": "in vivo, mouse", "conditions": "30 mg/kg BW, cyst-induced mice", "experimental": "FIG. 11A. FIG. 11B, FIG. 11C, FIG. 11D, and FIG. 11E show expression of ER stress markers GRP78, Ero1, and GADD in Pkd1-1 mice treated with VX-809. (FIG. 11A & FIG. 11D) Representative Western blot images of GRP78, ErO1, and GADD in lysates of kidney tissue from no cyst induced (ND), cyst induced with doxycycline (D) or cyst induced pkd−/− mice treated with VX-809 (D+VX-809) 30 mg/kg BW. (FIG. 11B, FIG. 11C and FIG. 11E) Columns represent averages±standard errors of GRP78, Ero1, and GADD153 expression. Data were analyzed by non-parametric t-test. n=4 for each treated and control groups. Black lines between lanes represent representative experiments from the same gel but loaded in different lanes. **P<0.01, ***P<0.001;\nGiven that VX-809 alters an ensemble of Hsps, it was evaluated whether VX-809 alters proteins associated with ER stress. To address this question, the levels of three ER stress-associated proteins were measured, 78-kDa glucose-regulated protein (GRP78), ER oxidoreductin 1 (Ero1) and DNA damage-inducible protein 3 (GADD153), also known as C/EBP homologous protein (CHOP) (37). The results are depicted in FIG. 11 show no changes in GRP78 or Ero1 in response to VX-809."}}}
{"compound": "Cc1ccc(NC(=O)C2(c3ccc4c(c3)OC(F)(F)O4)CC2)nc1-c1cccc(C(=O)O)c1", "note": "[VX-809, lumacaftor]", "values": [{"measurement": "caspase 3 activity", "setting": "[1]", "value": "small reduction"}, {"measurement": "PC2 in the cilium", "setting": "[2]", "value": "restores PC2 to the cilium"}, {"measurement": "colocalization of PC2 with the cilia marker ac-αtubulin", "setting": "[2]", "value": "increases colocalization"}, {"measurement": "intracellular Ca^2+ movement in response to ATP", "setting": "[3]; ATP 100 μM", "value": "no effect"}, {"measurement": "resting Ca^2+", "setting": "[3]; ATP experiment", "value": "small reduction"}, {"measurement": "thapsigargin-induced release of Ca^2+ from the ER", "setting": "[3]; thapsigargin 4 μM", "value": "dramatically reduced"}, {"measurement": "resting Ca^2+", "setting": "[3]; thapsigargin experiment", "value": "small effect"}, {"measurement": "Ero1 level", "setting": "GRP78, Ero1, and GADD153", "value": "no changes"}, {"measurement": "GADD153 level", "setting": "GRP78, Ero1, and GADD153", "value": "equally dramatic reduction"}, {"measurement": "GRP78 level", "setting": "GRP78, Ero1, and GADD153", "value": "no changes"}]}
